# Test results as given in paper PMC5716189, “Characterization of the APLF FHA–XRCC1 phosphopeptide interaction and its structural and functional implications” (Nucleic Acids Research, 2017).
# Square brackets hold non-standard residues; d marks the D form. Peptide text beside a SMILES is read from it. * marks the point of attachment. FITC = O=C1OC2(c3ccc(O)cc3Oc3cc(O)ccc32)c2ccc(NC(=S)*)cc21; pT = C[C@@H](OP(=O)(O)O)[C@H](N)C(=O)O; pS = N[C@@H](COP(=O)(O)O)C(=O)O
# Assays:
# [1] = free amino acid; cited from earlier work
# From the text: This selectivity implies that most phosphopeptides formed by CK2-dependent phosphorylation contain multiple anionic residues and are often multiply phosphorylated.
# APLF FHA domain [2] = biological target: T1, APLF FHA domain (Homo sapiens, UniProt Q8IW19); assay: 1H,15N-HSQC NMR titration with inorganic anions; format: binding; conditions: for amide shift changes of U-[15N] APLF FHA produced by the anion: 0-150 mM titrant, 0.1 mM protein; for Kd: amide shifts of the more strongly shifted resonances, 25 mM HEPES, 25 mM MES, 150 mM NaCl, 1 mM EDTA, 1:1 binding, read-out: phosphate Kd
# T1 construct: His6 (N, cleaved yes); TEV cleavage site (N, cleaved yes); made in house; host or cells: Escherichia coli Rosetta2 (DE3)
# T1 sequence (Q8IW19 1-108 limits assumed): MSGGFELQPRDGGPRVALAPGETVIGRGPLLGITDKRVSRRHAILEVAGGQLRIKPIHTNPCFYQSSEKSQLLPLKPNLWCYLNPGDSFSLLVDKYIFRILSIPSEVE
# Description: (§1) All NMR experiments were performed at 35°C on a Varian INOVA 500 MHz spectrometer equipped with a triple-resonance, pulsed-field gradient cryo-probe, with the exception of the ^31P experiments, which were collected on an Agilent/Varian DD2 600 MHz spectrometer equipped with a heteronuclear broadband probe. The backbone chemical shift assignments were made from 3D HNCACB, CBCA(CO)NH, HNCA, HN(CO)CA, HNCO and HN(CA)CO experiments that were obtained using Agilent BioPack pulse sequences (Agilent). The 3D experiments were acquired with non-uniform sampling to speed up the data acquisition ([36],[37]). Since several of the amide resonances were broadened as a result of the intermediate amide proton exchange dynamics at pH 7.4, a low pH buffer, 25 mM sodium citrate, 50 mM NaCl, and 1 mM EDTA, pH 5.5, was used for the amide backbone assignments. For phosphopeptide titration experiments, 2D ^1H,^15N-HSQC spectra were acquired on a sample containing 0.1 mM U-[^15N] APLF-FHA in 25 mM HEPES, 25 mM MES, 150 mM NaCl, 1 mM EDTA, pH 7.4 as a function of phosphopeptide concentration. The interaction of sodium phosphate, sodium sulfate, and sodium ethylsulfate with U-[^15N] APLF FHA sample was also studied by monitoring the ^1H,^15N-HSQC spectrum of the labeled protein as a function of the anion concentration. The volume of peptide or anion added never exceeded more than 10% of the total volume.
# APLF FHA domain [3] = biological target: T1, APLF FHA domain; assay: NMR lineshape simulation of amide exchange data; format: binding; conditions: two-site exchange lineshape simulation; pH 7.4; 35°C
# Description: as §1, with “APLF-FHA in 25 mM HEPES, 25 mM MES, 150 mM NaCl, 1 mM EDTA, pH 7.4 as a function of phosphopeptide concentration. The interaction of sodium phosphate, sodium sulfate, and sodium ethylsulfate with U-[^15N] APLF FHA sample was also studied by monitoring the ^1H,^15N-HSQC spectrum of the labeled protein as a function of the anion concentration. The volume of peptide or anion added never exceeded more than 10% of the total volume.” left out
# The lineshape simulations utilized a Mathematica algorithm (Wolfram Research, Champaign, IL, USA) based on the two-site exchange formalism given by Rogers and Woodbrey ([40]). The fraction of bound ligand, pB, is initially calculated using the above relation, the FHA domain and peptide concentrations and an assumed Kd value which is then varied to optimize the agreement with the experimental spectra. […]
# APLF FHA domain [4] = biological target: T1, APLF FHA domain; assay: Fluorescence polarization peptide binding assay; conditions: FP; for Kd: room temperature
# Description: Apparent dissociation constants for peptide-protein interactions were determined based on fluorescence polarization measurements of fluorescein-labeled peptides on a POLARstar Omega fluorescence polarization (FP) reader (BMG Labtech) using an excitation wavelength of 485 nm and the emission measured at 520 nm at room temperature. XRCC1 phosphopeptides used in FP studies (Table 1) were labeled with an N-terminal FITC-Gly-Gly fluorophore. Measurements were made as a function of pH in the range from pH 7.4 to 5.5 in FP buffer consisting of 25 mM HEPES, 25 mM MES, 150 mM NaCl, 1 mM EDTA, 2 mM DTT and 0.05% Tween 20. Samples of the APLF FHA domain in FP buffer were prepared at pH 7.4, 7.0, 6.5, 6.0 and 5.5. Samples corresponding to each titration step were put in a 96-well black flat-bottomed plate and the fluorescence emission polarization was determined. The FP results were normalized to a 0–1 scale after curve-fitting for the direct comparison of results from different conditions. Data for the interaction of a phosphopeptide (L) with APLF FHA (M) were fit to a single-site binding equation as described previously ([39]). All phosphopeptides used were synthesized by either GenScript or Thermo Fisher.
# APLF FHA domain [5] = biological target: T1, APLF FHA domain; assay: 1H,15N-HSQC NMR phosphopeptide titration; format: binding; conditions: pH 7.4, 0.1 mM U-[15N] APLF FHA, 25 mM HEPES, 25 mM MES, 150 mM NaCl, 1 mM EDTA, 35°C
# Description: as §1
# [6] = 31P NMR pH titration of free phosphopeptides (pK determination); format: physicochemical; conditions: pH 8.5 to 4.0, 0.5 mM peptide, 50 mM sodium acetate, 50 mM sodium cacodylate, 1 mM EDTA, TMP reference, Henderson-Hasselbalch fit
# Description: 1D ^31P-NMR experiments were employed to determine the pK values of the phosphate groups in phosphopeptides and to characterize the interaction of the phosphopeptide with the APLF-FHA domain. Experimental parameters included a ^31P offset of 2.48 ppm, a sweep width of 20 ppm, an acquisition time of 1 sec, a relaxation delay of 1 sec, and 1024 scans were acquired per experiment. Phosphopeptide concentrations of 0.5 mM were used in all 1D ^31P NMR experiments. A two-dimensional selective ^1H,^31P-HSQC experiment ([38]) was used to assign the phosphoserine and phosphothreonine resonances. […]
# Measurements of the pK values of the free phosphopeptides were performed in 50 mM sodium acetate, 50 mM sodium cacodylate, 1 mM EDTA as a function of pH with 0.5 mM tri-methylphosphate (TMP) added as a chemical shift reference. Small amounts of 0.1 N NaOH or HCl were titrated to vary the pH in the range from 8.5 to 4.0 in 0.2–0.4 pH decrements. pK values were determined by fitting the pH-dependent chemical shift data to a Henderson–Hasselbalch equation: where δP and δU correspond to the protonated and unprotonated chemical shifts. The dependence of the phosphopeptide ^31P NMR shifts as a function of APLF FHA domain concentration were determined in 25 mM HEPES, 25 mM MES, 150 mM NaCl, 1 mM EDTA, pH 7.4, with 0.25 mM TMP added as a chemical shift reference. […]
# [7] = pH 6.0, FITC-Gly-Gly labelled peptide, FP buffer
# [8] = pH 6.5, FITC-Gly-Gly labelled peptide, FP buffer
# [9] = pH 7.4, N-terminal FITC-Gly-Gly labelled peptide, 25 mM HEPES, 25 mM MES, 150 mM NaCl, 1 mM EDTA, 2 mM DTT, 0.05% Tween 20, single-site fit
compound,measurement,setting,value
C[C@@H](OP(=O)(O)O)[C@H](N)C(=O)O [phosphothreonine],phosphate pK (dianionic/monoanionic),[1],~5.95
"CCOS(=O)(=O)[O-].[Na+] [ethylsulfate, sodium ethylsulfate]",amide shift changes of U-[15N] APLF FHA produced by the anion,APLF FHA domain [2]; pH 7.4,fails to produce any significant amide shifts
same,amide shift changes of U-[15N] APLF FHA produced by the anion,"APLF FHA domain [2]; pH 7.4, listed as sodium ethylsulfate",negligible shifts
N[C@@H](COP(=O)(O)O)C(=O)O [phosphoserine],phosphate pK (dianionic/monoanionic),[1],approximately 5.75
C[C@H](NC(=O)[C@H](Cc1ccc(O)cc1)NC(=O)[C@@H]1CCCN1C(=O)[C@H](CC(=O)O)NC(=O)CNC(=O)CNC(=S)Nc1ccc2c(c1)C(=O)OC21c2ccc(O)cc2Oc2cc(O)ccc21)C(=O)NCC(=O)N[C@@H](COP(=O)(O)O)C(=O)N[C@H](C(=O)N[C@@H](CC(=O)O)C(=O)N[C@@H](CCC(=O)O)C(=O)N[C@@H](CC(N)=O)C(=O)N[C@H](C(=O)N[C@@H](CC(=O)O)C(=O)N[C@@H](CO)C(=O)N[C@@H](CCC(=O)O)C(=O)N[C@@H](CCC(=O)O)C(=O)N[C@@H](Cc1c[nH]cn1)C(=O)N[C@@H](CCC(N)=O)C(=O)N[C@@H](CCC(=O)O)C(=O)O)[C@@H](C)O)[C@@H](C)OP(=O)(O)O [XRCC1pSpT-18] ({FITC}-GGDPYAG[pS][pT]DENTDSEEHQE-OH; C-terminus assumed),"τB, lifetime of the protein-peptide complex",APLF FHA domain [3],0.9 ms
same,Kd,"APLF FHA domain [4]; pH 5.5, FITC-Gly-Gly labelled peptide, FP buffer",> 60 µM
same,Kd,APLF FHA domain [4]; [7],> 25 µM
same,fold reduction of binding affinity at pH 6.0,APLF FHA domain [4]; pH 6.0 relative to pH 7.4,> 8 fold
same,Kd,APLF FHA domain [4]; [8],8.23 ± 1.89 µM
same,fold reduction of binding affinity at pH 6.5,APLF FHA domain [4]; pH 6.5 relative to pH 7.4,less than 2.5 fold
same,Kd,"APLF FHA domain [4]; pH 7.0, FITC-Gly-Gly labelled peptide, FP buffer",4.67 ± 0.04 µM
same,Kd,APLF FHA domain [4]; [9],3.31 ± 0.15 µM
C[C@H](NC(=O)[C@H](Cc1ccc(O)cc1)NC(=O)[C@@H]1CCCN1)C(=O)NCC(=O)N[C@@H](COP(=O)(O)O)C(=O)N[C@H](C(=O)N[C@@H](CC(=O)O)C(=O)N[C@@H](CCC(=O)O)C(=O)N[C@@H](CC(N)=O)C(=O)O)[C@@H](C)OP(=O)(O)O [XRCC1pSpT-9] (H-PYAG[pS][pT]DEN-OH),Kd,APLF FHA domain [5],80 µM
"VYDEpSpTDEESEN [XRCC4pSpT-12, 12-residue XRCC4 peptide phosphorylated on Ser232/Thr233]",pK of pSer phosphate,[6],6.90
same,pK of pThr phosphate,[6],7.22
C[C@H](NC(=O)[C@H](Cc1ccc(O)cc1)NC(=O)[C@@H]1CCCN1C(=O)[C@@H](N)CC(=O)O)C(=O)NCC(=O)N[C@@H](CCC(=O)O)C(=O)N[C@H](C(=O)N[C@@H](CC(=O)O)C(=O)N[C@@H](CCC(=O)O)C(=O)N[C@@H](CC(N)=O)C(=O)N[C@H](C(=O)N[C@@H](CC(=O)O)C(=O)N[C@@H](CO)C(=O)N[C@@H](CCC(=O)O)C(=O)N[C@@H](CCC(=O)O)C(=O)N[C@@H](Cc1c[nH]cn1)C(=O)N[C@@H](CCC(N)=O)C(=O)N[C@@H](CCC(=O)O)C(=O)O)[C@@H](C)O)[C@@H](C)OP(=O)(O)O [XRCC1EpT-18] (H-DPYAGE[pT]DENTDSEEHQE-OH),Kd,APLF FHA domain [4]; [7],> 300 µM
same,Kd,APLF FHA domain [4]; [8],> 50 µM
same,Kd,APLF FHA domain [4]; [9],9.94 ± 4.6 µM
C[C@H](NC(=O)[C@H](Cc1ccc(O)cc1)NC(=O)[C@@H]1CCCN1C(=O)[C@H](CC(=O)O)NC(=O)CNC(=O)CNC(=S)Nc1ccc2c(c1)C(=O)OC21c2ccc(O)cc2Oc2cc(O)ccc21)C(=O)NCC(=O)N[C@@H](COP(=O)(O)O)C(=O)N[C@H](C(=O)N[C@@H](CC(=O)O)C(=O)N[C@@H](CCC(=O)O)C(=O)N[C@@H](CC(N)=O)C(=O)N[C@@H](CCC(=O)O)C(=O)N[C@@H](CC(=O)O)C(=O)N[C@@H](CCC(=O)O)C(=O)N[C@@H](CCC(=O)O)C(=O)N[C@@H](CCC(=O)O)C(=O)N[C@@H](Cc1c[nH]cn1)C(=O)N[C@@H](CCC(N)=O)C(=O)N[C@@H](CCC(=O)O)C(=O)O)[C@@H](C)OP(=O)(O)O [XRCC1pSpTEE-18] ({FITC}-GGDPYAG[pS][pT]DENEDEEEHQE-OH; C-terminus assumed),fold reduction of Kd relative to XRCC1pSpT-18,APLF FHA domain [4]; pH 7.4,10 fold
"O=S(=O)([O-])[O-].[Na+].[Na+] [sulfate, sodium sulfate]",amide shift changes of U-[15N] APLF FHA produced by the anion,APLF FHA domain [2]; pH 7.4,"perturbs the same resonances that are sensitive to phosphate, although to a lesser extent"
"O=P(O)(O)O [phosphate, sodium phosphate]",Kd,APLF FHA domain [2]; pH 5.5,92500 ± 17800 µM
same,Kd,APLF FHA domain [2]; pH 7.4,14100 ± 3700 µM
C[C@H](NC(=O)[C@H](Cc1ccc(O)cc1)NC(=O)[C@@H]1CCCN1C(=O)[C@H](CC(=O)O)NC(=O)CNC(=O)CNC(=S)Nc1ccc2c(c1)C(=O)OC21c2ccc(O)cc2Oc2cc(O)ccc21)C(=O)NCC(=O)N[C@@H](CO)C(=O)N[C@H](C(=O)N[C@@H](CC(=O)O)C(=O)N[C@@H](CCC(=O)O)C(=O)N[C@@H](CC(N)=O)C(=O)N[C@H](C(=O)N[C@@H](CC(=O)O)C(=O)N[C@@H](CO)C(=O)N[C@@H](CCC(=O)O)C(=O)N[C@@H](CCC(=O)O)C(=O)N[C@@H](Cc1c[nH]cn1)C(=O)N[C@@H](CCC(N)=O)C(=O)N[C@@H](CCC(=O)O)C(=O)O)[C@@H](C)O)[C@@H](C)OP(=O)(O)O [XRCC1SpT-18] ({FITC}-GGDPYAGS[pT]DENTDSEEHQE-OH; C-terminus assumed),Kd,APLF FHA domain [4]; [9],> 20 µM
